Source: ChEMBL document CHEMBL4507291 (2021)

How the values were obtained:
[1] = molecular target: Serine/threonine-protein kinase PAK 2 (Homo sapiens) (UniProt Q13177); assay: PAK2 (PAK65) Kinase screen; conditions: Compound concentration 1.0 uM
[2] = molecular target: Ribosomal protein S6 kinase alpha-4 (Homo sapiens) (UniProt O75676); assay: RPS6KA4 (MSK2) Kinase screen; conditions: Compound concentration 1.0 uM
[3] = molecular target: Fibroblast growth factor receptor 3 (Homo sapiens) (UniProt P22607); assay: FGFR3 Kinase screen; conditions: Compound concentration 1.0 uM
Sequence of Fibroblast growth factor receptor 3 (Homo sapiens) (P22607 23-806 limits assumed): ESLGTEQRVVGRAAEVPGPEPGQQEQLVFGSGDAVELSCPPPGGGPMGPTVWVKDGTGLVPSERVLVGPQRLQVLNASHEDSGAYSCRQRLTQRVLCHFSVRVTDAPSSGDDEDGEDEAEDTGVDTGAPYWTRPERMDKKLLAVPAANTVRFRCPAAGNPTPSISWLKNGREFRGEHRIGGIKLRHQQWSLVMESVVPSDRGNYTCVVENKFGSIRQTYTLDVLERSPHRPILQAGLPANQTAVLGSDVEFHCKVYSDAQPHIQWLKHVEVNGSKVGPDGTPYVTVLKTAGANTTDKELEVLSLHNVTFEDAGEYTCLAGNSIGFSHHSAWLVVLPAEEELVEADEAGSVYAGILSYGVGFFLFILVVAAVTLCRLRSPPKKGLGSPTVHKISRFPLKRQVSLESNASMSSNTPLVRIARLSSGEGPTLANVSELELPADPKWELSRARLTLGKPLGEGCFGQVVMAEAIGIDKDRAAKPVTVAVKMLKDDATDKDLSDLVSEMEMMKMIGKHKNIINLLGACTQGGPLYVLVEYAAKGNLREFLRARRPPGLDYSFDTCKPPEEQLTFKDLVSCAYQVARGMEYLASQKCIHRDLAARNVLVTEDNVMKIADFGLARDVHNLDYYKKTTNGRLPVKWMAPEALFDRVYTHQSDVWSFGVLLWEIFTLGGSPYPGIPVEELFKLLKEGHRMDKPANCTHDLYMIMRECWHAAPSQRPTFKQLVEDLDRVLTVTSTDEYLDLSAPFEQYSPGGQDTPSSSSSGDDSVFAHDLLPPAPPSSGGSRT

[4] = molecular target: cAMP-dependent protein kinase catalytic subunit alpha (Homo sapiens) (UniProt P17612); assay: PRKACA (PKA) Kinase screen; conditions: Compound concentration 1.0 uM
[5] = molecular target: T1, Mitogen-activated protein kinase kinase kinase kinase 2 (Homo sapiens) (UniProt Q12851); assay: MAP4K2 (GCK) Kinase screen; conditions: Compound concentration 1.0 uM
T1 sequence (whole entry): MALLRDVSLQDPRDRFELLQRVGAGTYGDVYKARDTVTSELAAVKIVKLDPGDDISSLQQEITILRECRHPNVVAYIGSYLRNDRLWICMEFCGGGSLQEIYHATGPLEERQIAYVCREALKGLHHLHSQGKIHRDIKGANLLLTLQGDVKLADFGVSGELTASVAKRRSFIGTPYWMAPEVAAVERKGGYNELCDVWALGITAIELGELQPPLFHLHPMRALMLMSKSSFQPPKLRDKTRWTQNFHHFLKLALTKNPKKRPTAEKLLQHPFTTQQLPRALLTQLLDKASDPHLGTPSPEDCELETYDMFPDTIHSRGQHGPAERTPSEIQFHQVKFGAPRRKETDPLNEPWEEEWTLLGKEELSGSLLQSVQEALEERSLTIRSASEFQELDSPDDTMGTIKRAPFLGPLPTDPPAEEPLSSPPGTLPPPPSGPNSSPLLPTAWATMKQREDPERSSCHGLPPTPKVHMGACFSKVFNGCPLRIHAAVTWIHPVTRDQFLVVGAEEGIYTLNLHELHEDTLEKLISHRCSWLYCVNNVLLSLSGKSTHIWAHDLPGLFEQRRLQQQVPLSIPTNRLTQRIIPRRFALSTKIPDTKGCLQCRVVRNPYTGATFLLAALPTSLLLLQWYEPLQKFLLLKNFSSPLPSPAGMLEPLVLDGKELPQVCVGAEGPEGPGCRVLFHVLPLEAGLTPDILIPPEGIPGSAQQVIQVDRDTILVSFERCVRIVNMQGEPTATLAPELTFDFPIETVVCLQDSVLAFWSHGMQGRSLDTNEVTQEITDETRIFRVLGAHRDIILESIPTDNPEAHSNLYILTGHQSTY

[6] = molecular target: T2, Serine/threonine-protein kinase D3 (Homo sapiens) (UniProt O94806); assay: PRKCN (PKD3) Kinase screen; conditions: Compound concentration 1.0 uM
T2 sequence (whole entry): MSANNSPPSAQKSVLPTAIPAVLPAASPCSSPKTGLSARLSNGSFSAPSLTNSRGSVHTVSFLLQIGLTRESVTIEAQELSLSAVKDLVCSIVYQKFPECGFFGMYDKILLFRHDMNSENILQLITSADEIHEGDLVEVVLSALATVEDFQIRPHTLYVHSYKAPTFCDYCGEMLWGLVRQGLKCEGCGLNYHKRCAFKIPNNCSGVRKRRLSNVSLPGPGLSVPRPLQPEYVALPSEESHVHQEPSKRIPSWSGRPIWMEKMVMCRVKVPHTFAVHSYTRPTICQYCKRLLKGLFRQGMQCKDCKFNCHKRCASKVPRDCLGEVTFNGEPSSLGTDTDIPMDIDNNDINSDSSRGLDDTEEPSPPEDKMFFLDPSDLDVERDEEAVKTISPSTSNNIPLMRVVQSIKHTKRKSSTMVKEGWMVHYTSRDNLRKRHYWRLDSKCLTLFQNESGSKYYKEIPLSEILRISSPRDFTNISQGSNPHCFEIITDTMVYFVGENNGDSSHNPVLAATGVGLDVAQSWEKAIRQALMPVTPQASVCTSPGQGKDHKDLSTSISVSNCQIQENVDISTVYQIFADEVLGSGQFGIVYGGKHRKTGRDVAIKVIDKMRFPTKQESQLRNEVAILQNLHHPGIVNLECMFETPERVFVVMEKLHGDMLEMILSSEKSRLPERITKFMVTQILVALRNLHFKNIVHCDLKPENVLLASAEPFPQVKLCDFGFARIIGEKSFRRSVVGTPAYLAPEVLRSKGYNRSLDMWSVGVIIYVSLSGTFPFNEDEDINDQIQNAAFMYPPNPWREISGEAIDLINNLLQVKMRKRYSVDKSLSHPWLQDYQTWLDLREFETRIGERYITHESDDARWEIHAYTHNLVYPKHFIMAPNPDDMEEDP

[7] = molecular target: Ephrin type-A receptor 7 (Homo sapiens) (UniProt Q15375); assay: EPHA7 Kinase screen; conditions: Compound concentration 1.0 uM
Sequence of Ephrin type-A receptor 7 (Homo sapiens) (Q15375 28-998 limits assumed): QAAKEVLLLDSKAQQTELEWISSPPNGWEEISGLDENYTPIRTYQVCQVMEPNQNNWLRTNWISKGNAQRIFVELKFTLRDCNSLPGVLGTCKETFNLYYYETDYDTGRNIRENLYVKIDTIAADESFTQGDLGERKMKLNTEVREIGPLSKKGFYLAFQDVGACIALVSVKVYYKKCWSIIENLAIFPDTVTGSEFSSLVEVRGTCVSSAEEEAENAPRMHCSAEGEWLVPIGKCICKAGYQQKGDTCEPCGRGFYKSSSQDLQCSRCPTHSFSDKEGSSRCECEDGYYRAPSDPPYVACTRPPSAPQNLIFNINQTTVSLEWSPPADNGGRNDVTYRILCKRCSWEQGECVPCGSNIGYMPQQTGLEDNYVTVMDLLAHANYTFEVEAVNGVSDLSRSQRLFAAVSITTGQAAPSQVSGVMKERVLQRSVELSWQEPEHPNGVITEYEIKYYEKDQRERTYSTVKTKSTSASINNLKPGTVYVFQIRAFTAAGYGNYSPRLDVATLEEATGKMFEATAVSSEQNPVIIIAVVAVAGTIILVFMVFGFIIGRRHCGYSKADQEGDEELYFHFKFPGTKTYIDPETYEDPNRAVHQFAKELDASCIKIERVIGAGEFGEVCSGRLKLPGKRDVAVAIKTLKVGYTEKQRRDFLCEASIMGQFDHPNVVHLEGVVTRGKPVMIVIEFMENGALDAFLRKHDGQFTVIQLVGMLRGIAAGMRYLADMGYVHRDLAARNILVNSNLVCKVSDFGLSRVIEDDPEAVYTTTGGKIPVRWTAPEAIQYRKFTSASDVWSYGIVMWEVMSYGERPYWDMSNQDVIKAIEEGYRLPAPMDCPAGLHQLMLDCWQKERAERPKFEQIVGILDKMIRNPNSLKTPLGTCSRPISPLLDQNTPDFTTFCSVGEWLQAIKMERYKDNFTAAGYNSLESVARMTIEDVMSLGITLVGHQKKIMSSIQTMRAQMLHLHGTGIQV

[8] = molecular target: Tyrosine-protein kinase Lyn (Homo sapiens) (UniProt P07948); assay: LYN B Kinase screen; conditions: Compound concentration 1.0 uM
Sequence of Tyrosine-protein kinase Lyn (Homo sapiens) (P07948 2-512 limits assumed): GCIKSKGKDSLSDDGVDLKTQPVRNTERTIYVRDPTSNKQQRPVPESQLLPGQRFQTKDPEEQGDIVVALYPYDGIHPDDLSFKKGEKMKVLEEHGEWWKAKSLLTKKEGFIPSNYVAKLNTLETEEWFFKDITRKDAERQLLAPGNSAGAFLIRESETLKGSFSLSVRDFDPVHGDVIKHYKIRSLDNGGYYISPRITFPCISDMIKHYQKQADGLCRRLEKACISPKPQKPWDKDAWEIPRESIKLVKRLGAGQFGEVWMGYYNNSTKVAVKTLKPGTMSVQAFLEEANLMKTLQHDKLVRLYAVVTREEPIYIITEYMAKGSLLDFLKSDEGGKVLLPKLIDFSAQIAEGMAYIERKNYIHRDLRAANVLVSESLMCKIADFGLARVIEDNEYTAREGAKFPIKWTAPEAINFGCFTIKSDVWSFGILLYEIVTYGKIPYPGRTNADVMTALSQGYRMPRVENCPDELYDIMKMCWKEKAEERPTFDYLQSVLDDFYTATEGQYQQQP

[9] = molecular target: T3, Inhibitor of nuclear factor kappa-B kinase subunit beta (Homo sapiens) (UniProt O14920); assay: IKBKB (IKK beta) Kinase screen; conditions: Compound concentration 1.0 uM
T3 sequence (whole entry): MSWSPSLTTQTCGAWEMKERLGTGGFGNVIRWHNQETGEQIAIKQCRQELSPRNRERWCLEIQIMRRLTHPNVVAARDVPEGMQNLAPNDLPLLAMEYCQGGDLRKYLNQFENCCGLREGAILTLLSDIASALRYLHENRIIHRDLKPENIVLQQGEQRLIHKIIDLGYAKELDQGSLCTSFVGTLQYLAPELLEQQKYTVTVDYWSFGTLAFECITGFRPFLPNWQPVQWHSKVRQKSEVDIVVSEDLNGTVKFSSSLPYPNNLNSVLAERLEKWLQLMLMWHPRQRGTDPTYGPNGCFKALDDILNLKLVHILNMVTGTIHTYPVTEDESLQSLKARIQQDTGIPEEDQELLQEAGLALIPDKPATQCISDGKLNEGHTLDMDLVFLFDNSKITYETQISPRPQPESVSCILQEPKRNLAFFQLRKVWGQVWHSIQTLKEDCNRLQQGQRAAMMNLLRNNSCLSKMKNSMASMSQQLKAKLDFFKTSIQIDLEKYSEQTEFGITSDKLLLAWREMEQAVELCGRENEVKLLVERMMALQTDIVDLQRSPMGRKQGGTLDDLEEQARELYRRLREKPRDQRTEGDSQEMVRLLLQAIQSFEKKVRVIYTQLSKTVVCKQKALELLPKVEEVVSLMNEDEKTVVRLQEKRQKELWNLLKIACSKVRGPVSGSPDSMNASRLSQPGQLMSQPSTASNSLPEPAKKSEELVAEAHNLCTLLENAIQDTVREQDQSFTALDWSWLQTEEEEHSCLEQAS

[10] = molecular target: Wee1-like protein kinase (Homo sapiens) (UniProt P30291); assay: WEE1 Kinase screen; conditions: Compound concentration 1.0 uM
[11] = molecular target: Vasopressin V1b receptor (Homo sapiens) (UniProt P47901); assay: Inhibition of Vasopressin V1B at 10 µM in the Eurofins-Panlabs radioligand binding assay (Eurofins_assay_287560); parameters: ligand concentration 1 nM; conditions: Compound concentration 10.0 uM
Sequence of Vasopressin V1b receptor (Homo sapiens) (P47901 whole entry): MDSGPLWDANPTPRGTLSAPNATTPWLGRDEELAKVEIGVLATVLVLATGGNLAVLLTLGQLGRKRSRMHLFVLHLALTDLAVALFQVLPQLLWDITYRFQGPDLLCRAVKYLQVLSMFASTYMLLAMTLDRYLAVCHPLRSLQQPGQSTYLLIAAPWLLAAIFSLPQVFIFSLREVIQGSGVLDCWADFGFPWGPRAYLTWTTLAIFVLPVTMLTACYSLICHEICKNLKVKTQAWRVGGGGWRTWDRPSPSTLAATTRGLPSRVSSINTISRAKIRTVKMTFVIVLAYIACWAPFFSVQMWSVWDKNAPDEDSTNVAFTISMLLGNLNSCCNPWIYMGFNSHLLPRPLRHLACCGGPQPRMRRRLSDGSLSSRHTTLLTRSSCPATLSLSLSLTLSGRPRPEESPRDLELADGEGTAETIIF

[12] = tested on: Tyrosine-protein kinase ABL1 (Homo sapiens), P00519 [T315I]; assay: ABL1 T315I Kinase screen; conditions: Compound concentration 1.0 uM
[13] = molecular target: Peroxisome proliferator-activated receptor alpha (Homo sapiens) (UniProt Q07869); assay: PPARalpha Eurofins-Panlabs radioligand binding assay; conditions: Compound concentration 10.0 uM
Sequence of Peroxisome proliferator-activated receptor alpha (Homo sapiens) (Q07869 whole entry): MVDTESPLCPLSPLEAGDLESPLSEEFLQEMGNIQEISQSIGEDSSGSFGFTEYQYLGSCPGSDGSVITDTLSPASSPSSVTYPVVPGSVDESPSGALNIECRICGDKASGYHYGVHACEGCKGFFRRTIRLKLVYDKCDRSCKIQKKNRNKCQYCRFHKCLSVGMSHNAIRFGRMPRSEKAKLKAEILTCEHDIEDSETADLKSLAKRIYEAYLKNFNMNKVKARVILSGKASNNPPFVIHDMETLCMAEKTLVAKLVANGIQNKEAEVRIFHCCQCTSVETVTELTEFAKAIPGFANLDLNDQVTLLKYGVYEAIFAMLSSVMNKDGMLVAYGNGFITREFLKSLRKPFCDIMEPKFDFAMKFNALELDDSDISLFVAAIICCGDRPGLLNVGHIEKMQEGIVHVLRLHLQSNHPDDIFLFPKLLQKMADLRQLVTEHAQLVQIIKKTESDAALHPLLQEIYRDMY

Measured: inhibition

Sequence of Serine/threonine-protein kinase PAK 2 (Homo sapiens) (Q13177 whole entry): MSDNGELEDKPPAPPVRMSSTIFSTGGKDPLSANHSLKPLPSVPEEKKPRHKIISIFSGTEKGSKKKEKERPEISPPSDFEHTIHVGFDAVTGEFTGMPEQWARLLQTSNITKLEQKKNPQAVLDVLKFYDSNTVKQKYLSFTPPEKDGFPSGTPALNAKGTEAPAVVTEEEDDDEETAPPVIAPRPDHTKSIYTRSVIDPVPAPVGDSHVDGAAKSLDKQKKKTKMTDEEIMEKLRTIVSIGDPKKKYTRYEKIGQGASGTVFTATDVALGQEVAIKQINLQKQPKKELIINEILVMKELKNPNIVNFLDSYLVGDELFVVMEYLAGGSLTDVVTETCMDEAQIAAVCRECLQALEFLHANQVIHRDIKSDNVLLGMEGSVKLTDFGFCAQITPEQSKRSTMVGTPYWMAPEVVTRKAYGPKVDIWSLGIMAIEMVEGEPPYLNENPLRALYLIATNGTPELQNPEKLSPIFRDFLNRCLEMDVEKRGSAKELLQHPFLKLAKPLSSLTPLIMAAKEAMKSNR
Sequence of Ribosomal protein S6 kinase alpha-4 (Homo sapiens) (O75676 whole entry, looked up): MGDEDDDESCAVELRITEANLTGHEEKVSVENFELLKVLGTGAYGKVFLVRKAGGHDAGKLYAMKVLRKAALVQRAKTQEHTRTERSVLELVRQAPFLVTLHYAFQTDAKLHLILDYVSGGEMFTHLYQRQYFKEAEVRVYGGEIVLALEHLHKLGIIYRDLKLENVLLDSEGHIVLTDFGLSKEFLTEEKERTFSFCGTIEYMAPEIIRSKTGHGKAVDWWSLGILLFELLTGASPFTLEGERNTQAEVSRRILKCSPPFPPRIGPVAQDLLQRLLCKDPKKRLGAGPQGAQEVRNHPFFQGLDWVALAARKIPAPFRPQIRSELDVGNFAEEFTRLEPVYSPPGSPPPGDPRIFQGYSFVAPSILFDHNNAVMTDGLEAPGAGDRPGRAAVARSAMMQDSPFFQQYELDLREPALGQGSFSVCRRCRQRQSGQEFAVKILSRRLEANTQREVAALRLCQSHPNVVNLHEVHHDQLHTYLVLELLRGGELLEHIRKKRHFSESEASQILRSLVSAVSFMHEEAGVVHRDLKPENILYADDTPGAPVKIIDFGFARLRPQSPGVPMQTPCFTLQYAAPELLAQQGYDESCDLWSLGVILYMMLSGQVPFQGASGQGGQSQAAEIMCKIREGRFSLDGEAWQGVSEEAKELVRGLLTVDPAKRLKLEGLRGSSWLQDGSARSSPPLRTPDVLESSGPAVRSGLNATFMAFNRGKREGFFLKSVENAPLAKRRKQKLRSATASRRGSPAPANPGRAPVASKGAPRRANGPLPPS

C[C@@H]1CN(c2cc(-c3n[nH]c4ccc(OC5(C)CC5)cc34)ncn2)C[C@H](C)O1 [MLi-2]
inactive: [1] 8.73% | [2] 7.68% | [3] 9.38% | [4] -2.26% | [5] 30.9% | [6] 21.1% | [7] 8.11% | [8] 3.94% | [9] -0.0171% | [10] 3% | [11] 1% | [12] 9.34% | [13] 10%
